# Values joined by “and” are separate entries in the source; they are usually repeats but may differ in a detail not shown here. Equal values may be shown once.
# Experiment: In vitro agonist activity at kappa opioid receptor in rabbit vas deferens.
row,SMILES,IC50 [nM]
1,"CC(=O)N1CCN(C(=O)Cc2ccc(Cl)c(Cl)c2)C(CN2CCCC2)C1 (centres undefined) [1-(4-Acetyl-2-pyrrolidin-1-ylmethyl-piperazin-1-yl)-2-(3,4-dichloro-phenyl)-ethanone]",10
2,"O=C(c1ccccc1)N1CCN(C(=O)Cc2ccc(Cl)c(Cl)c2)C(CN2CCCC2)C1 (centres undefined) [1-(4-Benzoyl-2-pyrrolidin-1-ylmethyl-piperazin-1-yl)-2-(3,4-dichloro-phenyl)-ethanone]",> 10000
3,"CCCC(=O)N1CCN(C(=O)Cc2ccc(Cl)c(Cl)c2)C(CN2CCCC2)C1 (centres undefined) [1-{4-[2-(3,4-Dichloro-phenyl)-acetyl]-3-pyrrolidin-1-ylmethyl-piperazin-1-yl}-butan-1-one]",60
4,"CCC(=O)N1CCN(C(=O)Cc2ccc(Cl)c(Cl)c2)C(CN2CCCC2)C1 (centres undefined) [1-{4-[2-(3,4-Dichloro-phenyl)-acetyl]-3-pyrrolidin-1-ylmethyl-piperazin-1-yl}-propan-1-one]",6.9
5,"C=CC(=O)N1CCN(C(=O)Cc2ccc(Cl)c(Cl)c2)C(CN2CCCC2)C1 (centres undefined) [1-{4-[2-(3,4-Dichloro-phenyl)-acetyl]-3-pyrrolidin-1-ylmethyl-piperazin-1-yl}-propenone]",0.42
6,"O=C(Cc1ccccc1)N1CCN(C(=O)Cc2ccc(Cl)c(Cl)c2)C(CN2CCCC2)C1 (centres undefined) [2-(3,4-Dichloro-phenyl)-1-(4-phenylacetyl-2-pyrrolidin-1-ylmethyl-piperazin-1-yl)-ethanone]",> 10000
7,"COCC(=O)N1CCN(C(=O)Cc2ccc(Cl)c(Cl)c2)C(CN2CCCC2)C1 (centres undefined) [2-(3,4-Dichloro-phenyl)-1-[4-(2-methoxy-acetyl)-2-pyrrolidin-1-ylmethyl-piperazin-1-yl]-ethanone]",2900
8,"COC(=O)N1CCN(C(=O)Cc2ccc(Cl)c(Cl)c2)C(CN2CC=CCC2)C1 (centres undefined) [4-[2-(3,4-Dichloro-phenyl)-acetyl]-3-(3,6-dihydro-2H-pyridin-1-ylmethyl)-piperazine-1-carboxylic acid methyl ester]",0.04
9,"COC(=O)N1CCN(C(=O)Cc2ccc(Cl)c(Cl)c2)C(CN2CCC(O)C2)C1 (centres undefined) [4-[2-(3,4-Dichloro-phenyl)-acetyl]-3-(3-hydroxy-pyrrolidin-1-ylmethyl)-piperazine-1-carboxylic acid methyl ester]",0.34
10,"COC(=O)/C=C1/CCN(CC2CN(C(=O)OC)CCN2C(=O)Cc2ccc(Cl)c(Cl)c2)C1 (centres undefined) [4-[2-(3,4-Dichloro-phenyl)-acetyl]-3-(3-methoxycarbonylmethylene-pyrrolidin-1-ylmethyl)-piperazine-1-carboxylic acid methyl ester]",0.28
11,"COC(=O)/C=C1\CCN(CC2CN(C(=O)OC)CCN2C(=O)Cc2ccc(Cl)c(Cl)c2)C1 (centres undefined) [4-[2-(3,4-Dichloro-phenyl)-acetyl]-3-(3-methoxycarbonylmethylene-pyrrolidin-1-ylmethyl)-piperazine-1-carboxylic acid methyl ester]",4
12,"COC(=O)N1CCN(C(=O)Cc2ccc(Cl)c(Cl)c2)C(CN2CCC(=O)C2)C1 (centres undefined) [4-[2-(3,4-Dichloro-phenyl)-acetyl]-3-(3-oxo-pyrrolidin-1-ylmethyl)-piperazine-1-carboxylic acid methyl ester]",0.34
13,"COC(=O)N1CCN(C(=O)Cc2ccc(Cl)c(Cl)c2)C(CN(C)C)C1 (centres undefined) [4-[2-(3,4-Dichloro-phenyl)-acetyl]-3-dimethylaminomethyl-piperazine-1-carboxylic acid methyl ester]",1.2
14,"O=CN1CCN(C(=O)Cc2ccc(Cl)c(Cl)c2)C(CN2CCCC2)C1 (centres undefined) [4-[2-(3,4-Dichloro-phenyl)-acetyl]-3-pyrrolidin-1-ylmethyl-piperazine-1-carbaldehyde]",15
15,"O=C(OCc1ccccc1)N1CCN(C(=O)Cc2ccc(Cl)c(Cl)c2)C(CN2CCCC2)C1 (centres undefined) [4-[2-(3,4-Dichloro-phenyl)-acetyl]-3-pyrrolidin-1-ylmethyl-piperazine-1-carboxylic acid benzyl ester]",450
16,"CCOC(=O)N1CCN(C(=O)Cc2ccc(Cl)c(Cl)c2)C(CN2CCCC2)C1 (centres undefined) [4-[2-(3,4-Dichloro-phenyl)-acetyl]-3-pyrrolidin-1-ylmethyl-piperazine-1-carboxylic acid ethyl ester]",3.5
17,"O=C(Oc1ccccc1)N1CCN(C(=O)Cc2ccc(Cl)c(Cl)c2)C(CN2CCCC2)C1 (centres undefined) [4-[2-(3,4-Dichloro-phenyl)-acetyl]-3-pyrrolidin-1-ylmethyl-piperazine-1-carboxylic acid phenyl ester]",> 10000
18,"CCCOC(=O)N1CCN(C(=O)Cc2ccc(Cl)c(Cl)c2)C(CN2CCCC2)C1 (centres undefined) [4-[2-(3,4-Dichloro-phenyl)-acetyl]-3-pyrrolidin-1-ylmethyl-piperazine-1-carboxylic acid propyl ester]",300

# Experiment: as above
# Remark: another data set of the same source
row,SMILES,IC50
1,COC(=O)N1CCN(C(=O)Cc2ccc(Cl)c(Cl)c2)C(CN2CCCC2)C1 (centres undefined) [GR-89696],0.041 nM and 0.018 nM
